The text below walks through data of ChEMBL document CHEMBL1137536, “Dipeptidyl aspartyl fluoromethylketones as potent caspase inhibitors: peptidomimetic replacement of the P(2) amino acid by 2-aminoaryl acids and other non-natural amino acids” (Bioorg Med Chem Lett, 2007).

One test relates to HeLa. As to the kind of experiment: Inhibition of TNF-alpha-induced apoptosis in HeLa cells assessed as cell protection. Particulars: Homo sapiens.
The target of the next test is T1, Caspase-1 (Homo sapiens, UniProt P29466).
T1 sequence (P29466 whole entry): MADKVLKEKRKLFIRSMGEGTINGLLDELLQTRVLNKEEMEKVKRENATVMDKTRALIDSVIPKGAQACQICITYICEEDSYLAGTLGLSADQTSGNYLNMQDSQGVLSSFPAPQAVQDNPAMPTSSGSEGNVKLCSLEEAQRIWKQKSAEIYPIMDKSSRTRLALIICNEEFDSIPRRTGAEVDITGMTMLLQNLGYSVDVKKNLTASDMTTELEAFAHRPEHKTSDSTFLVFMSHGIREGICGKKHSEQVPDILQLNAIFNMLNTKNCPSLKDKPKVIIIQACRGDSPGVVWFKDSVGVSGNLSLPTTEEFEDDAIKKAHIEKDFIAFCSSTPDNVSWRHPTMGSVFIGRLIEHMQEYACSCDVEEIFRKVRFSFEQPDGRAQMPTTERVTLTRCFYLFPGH
Briefly: Inhibition of human caspase 1.

The next test addresses T2, Caspase-6 (Homo sapiens, UniProt P55212).
T2 sequence (P55212 whole entry): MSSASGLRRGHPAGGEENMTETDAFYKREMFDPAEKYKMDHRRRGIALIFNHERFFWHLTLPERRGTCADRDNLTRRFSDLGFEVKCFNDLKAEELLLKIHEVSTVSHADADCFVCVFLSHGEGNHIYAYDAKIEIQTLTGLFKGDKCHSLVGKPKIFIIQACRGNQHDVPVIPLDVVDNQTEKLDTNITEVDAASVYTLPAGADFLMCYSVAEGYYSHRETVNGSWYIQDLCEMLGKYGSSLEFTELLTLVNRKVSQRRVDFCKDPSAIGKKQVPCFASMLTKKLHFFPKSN
Briefly: Inhibition of human caspase 6.

In another test the target is T3, Caspase-9 (Homo sapiens, UniProt P55211).
T3 sequence (P55211 whole entry): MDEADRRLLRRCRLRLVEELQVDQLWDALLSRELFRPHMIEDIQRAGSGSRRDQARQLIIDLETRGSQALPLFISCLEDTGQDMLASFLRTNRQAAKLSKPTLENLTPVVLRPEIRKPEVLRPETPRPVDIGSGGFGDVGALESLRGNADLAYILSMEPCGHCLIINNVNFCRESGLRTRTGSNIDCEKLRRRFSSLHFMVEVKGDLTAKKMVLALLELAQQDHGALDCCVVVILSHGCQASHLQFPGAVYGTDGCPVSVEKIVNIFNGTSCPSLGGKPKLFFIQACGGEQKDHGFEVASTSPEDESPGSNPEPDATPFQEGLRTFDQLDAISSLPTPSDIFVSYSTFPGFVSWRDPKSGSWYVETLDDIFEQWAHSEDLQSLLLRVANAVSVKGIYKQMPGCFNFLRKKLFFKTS
As to the kind of experiment: Inhibition of human caspase 9.

In a further test the target is Caspase-8 (Homo sapiens, UniProt Q14790). As to the kind of experiment: Inhibition of human caspase 8.
Caspase-8, sequence (Q14790 217-374 limits assumed): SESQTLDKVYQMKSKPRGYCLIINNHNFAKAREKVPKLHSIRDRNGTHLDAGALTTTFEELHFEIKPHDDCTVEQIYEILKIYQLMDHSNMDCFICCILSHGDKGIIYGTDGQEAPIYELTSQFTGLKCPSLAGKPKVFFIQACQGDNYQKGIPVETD
Caspase-8, sequence (Q14790 385-479 limits assumed): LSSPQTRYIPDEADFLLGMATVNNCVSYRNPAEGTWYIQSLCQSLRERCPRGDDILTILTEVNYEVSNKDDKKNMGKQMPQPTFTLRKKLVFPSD
Another test has as its target T4, Caspase-7 (Homo sapiens, UniProt P55210).
T4 sequence (P55210 whole entry): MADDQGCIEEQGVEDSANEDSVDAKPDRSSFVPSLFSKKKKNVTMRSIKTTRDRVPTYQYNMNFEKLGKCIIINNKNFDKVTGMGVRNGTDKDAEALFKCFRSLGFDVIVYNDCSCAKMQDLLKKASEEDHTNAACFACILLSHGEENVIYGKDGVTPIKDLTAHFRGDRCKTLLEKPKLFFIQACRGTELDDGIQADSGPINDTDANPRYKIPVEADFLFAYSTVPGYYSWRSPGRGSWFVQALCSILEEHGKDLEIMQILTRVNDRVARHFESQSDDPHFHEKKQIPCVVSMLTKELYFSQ
Briefly: Inhibition of human caspase 7.

The target of a further test is T5, Caspase-3 (Homo sapiens, UniProt P42574).
T5 sequence (P42574 whole entry): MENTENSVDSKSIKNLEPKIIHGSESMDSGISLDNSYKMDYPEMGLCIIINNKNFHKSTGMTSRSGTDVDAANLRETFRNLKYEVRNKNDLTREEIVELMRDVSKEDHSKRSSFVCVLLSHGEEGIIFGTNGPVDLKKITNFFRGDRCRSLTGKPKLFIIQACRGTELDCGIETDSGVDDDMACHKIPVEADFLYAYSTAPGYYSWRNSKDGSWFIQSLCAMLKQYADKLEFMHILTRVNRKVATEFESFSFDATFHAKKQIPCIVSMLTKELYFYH
Briefly: Inhibition of human recombinant caspase 3 by fluorometric assay.

In the case of `O=C(O)CC(NC(=O)c1ccccc1NC(=O)OCc1ccccc1)C(=O)CF` (stereo not given), the IC50 (commonly the concentration that gives 50% inhibition) in the test on HeLa was 4000 nM.
Still for that read-out and setting: next, `O=C(O)CC(NC(=O)c1sccc1NC(=O)OCc1ccccc1)C(=O)CF` (stereo not given): over 2000 nM.
Take `CC(C)[C@H](NC(=O)OCc1ccccc1)C(=O)Nc1ccccc1C(=O)NC(CC(=O)O)C(=O)CF` (stereo not given in full): the IC50 came to 12 nM against Caspase-1; 61 nM at Caspase-6; 6 nM against Caspase-9; 6 nM on Caspase-8; 11 nM against Caspase-7; 33 nM at Caspase-3.
In the case of `O=C(O)CN(C(=O)CF)C(=O)[C@H]1CCCN1C(=O)OCc1ccccc1`, the concentration for half-maximal inhibition (IC50) in the test on HeLa is over 2000 nM.
With `O=C(O)CN(C(=O)CF)C(=O)[C@H]1CCN1C(=O)OCc1ccccc1`, the IC50 in the test on HeLa amounted to 1700 nM.
